Key:
[1] = administered to the foal; cited from earlier work
R equi = conditions: administered to the foal; cited from earlier work
[2] = Whole blood and serum gallium in horses after gallium nitrate by nasogastric tube / oral dosing; format: in vivo
Procedure: FIG. 1 is a graph showing whole blood concentrations (micromoles/g) of horses in which gallium nitrate was administered daily after pulling blood for two days pre-administration. The horses were treated for five days.
(§1) For example, without limitation, in horses fed the same amount, the blood concentration increased from 0.0000231 micromoles/g to 0.0009004 micromoles/g well below what is needed to kill R. equi in the blood, but is a […] increase in blood concentration over time. Previous in vitro data found anything over 0.050 micromoles/ml killed R. equi in culture, and higher concentrations worked better. Administering oral gallium nitrate to mares daily achieved about 1.5 to 7.1 micromoles of gallium per gram of dry feces. This also led to a reduction in the concentration of R. equi in the feces of the mares.
(§2) For example, without limitations, two adult horses were given a single dose of gallium nitrate by nasogastric tube at a dose of 9.2 mg/kg at 1% gallium nitrate concentration. […] Based on tis work, two more horses were dosed with 9.2 mg/kg of daily for 6 days to determine steady state values. […] There were traces of gallium present in both the red blood cells (“RBC”) and smaller amounts in the serum prior to any medication administration. It appears to concentrate in the RBC and move into the serum. The significance of this is unknown.

[3] = Fecal concentration of gallium in mares given oral gallium nitrate daily; format: in vivo; conditions: 9.2 mg/kg of 1% GaN daily from day 320
From the text: FIG. 3 is a graph showing fecal concentration of gallium in ppm of gram of feces in control mares versus treated.
as §1
To determine the number of virulent colonies on each plate, a modified colony immunoblot method was used, as previously described (E.g., Grimm M B, Cohen N D, Slovis N M, et al. Evaluation of mares from a Thoroughbred breeding farm as a source of Rhodococcus equi for their foals using quantitative culture and a colony immunoblot assay. Am J Vet Res 2007; 68:63-71). Briefly, this procedure entails applying nitrocellulose membranes to culture plates to transfer bacterial surface proteins, blotting the membranes using a murine monoclonal antibody against the vapA protein, and then using a labeled secondary antibody to detect the presence of vapA-positive (i.e. virulent) colonies. […]

virulent R. equi [4] = experiment: Fecal concentration of virulent R. equi in peripartum mares (culture, colony immunoblot); format: in vivo, Rhodococcus equi
Procedure: (§3) As part of a non-limiting example of an embodiment of the invention, the effect of oral GaN on the concentrations of virulent R. equi in the feces of the mares was determined. Twenty-one horses were randomly assigned in a paired block design to ensure that 10 mares were part of the treated group and 11 mares were part of the control group. These twenty-one Arabian mares were treated daily with either oral gallium nitrate or placebo. Fecal samples were collected at day 320 of gestation (time 1), the week before foaling (time 2), and the week after foaling (time 3). Airborne concentration of R. equi were measured in the stall within 6 hours post foaling using a microbial air sampling system into which standard (100-mm) culture plates with a media selective for R. equi have been loaded. This sample size of mares was selected on the basis of power calculations using the following assumptions: (a) significance level of P=0.05; (b) statistical power of 90%; (c) a mean of 1×10^4 colony forming units (cfu) per gram of feces among control mares; (d) a mean of 1×10^3 cfu per gram of feces among principal mares; and (e) standard deviations of 1×10^4 and 1×10^3 for the control and principal groups, respectively. The values for fecal concentrations were made on the basis of prior experiences of a collaborator. The total number of R. equi colonies on a plate was determined by morphologic identification; additionally, 10 colonies identified as R. equi each month were tested by PCR to confirm that the isolates are R. equi.
To determine the number of virulent colonies on each plate, a modified colony immunoblot method was used, as previously described (E.g., Grimm M B, Cohen N D, Slovis N M, et al. Evaluation of mares from a Thoroughbred breeding farm as a source of Rhodococcus equi for their foals using quantitative culture and a colony immunoblot assay. Am J Vet Res 2007; 68:63-71). […]
Concentrations of total R. equi were determined by morphological characteristics. The concentration of virulent R. equi was determined using a modified colony immunoblot method. […]

virulent R. equi [5] = experiment: Virulent R. equi in feces of mares by real-time TaqMan PCR of vapA gene; format: in vivo, Rhodococcus equi
Procedure: As part of a non-limiting example of an embodiment of the invention, virulent R. equi in feces was measured in the feces using the following method. Two milliliters of PBS were added to 1 g of each fecal sample in a conical tube. Thereafter, each sample was vortexed for 10 seconds and centrifuged at 13,000× g for 1 minute. In order to minimize contamination, all pipetting steps were performed in a laminar flow cabinet. Nucleic acid purification from 180 μl of supernatant fluid was performed using an automated nucleic acid extraction system (CAS-1820 X-tractor Gene, Corbett Life Science, Sydney, Australia) according to the manufacturer's recommendations. A real-time TaqMan PCR assay for R. equi has been established and validated. The assay is based on the detection of a specific 75 base-pair long product of the vapA gene of R. equi (GenBank accession number AF116907; oligonucleotides: forward primer […], reverse primer […], probe […]). Each PCR reaction contained 400 nM of each primer, 80 nM of the TaqMan probe and mastermix (TaqMan Universal PCR Mastermix, Applied Biosystems, Foster City, Calif.) and 1 μL of the gDNA sample in a final volume of 12 μL. […] DNA extraction and amplification efficiency were verified by quantitating the universal bacterial 16S rRNA gene. Absolute quantitation of R. equi target molecules was performed using a standard curve and expressed as R. equi vapA target genes per 1 g of feces. […]
The number of CFU/g of either virulent R. equi in feces was estimated using real-time PCR. Because these samples were collected serially from individual mares, these longitudinal data were analyzed using mixed-effects modeling, with time (number of days since last known breeding date) and treatment group modeled as fixed effects, and individual mare modeled as a random effect. […] The count of positive samples were determined for each mare, and Poisson regression analysis was used to examine the effects of treatment. […]

R. equi [6] = experiment: Airborne concentration of R. equi in foaling stalls shortly after foaling; format: in vivo, Rhodococcus equi; conditions: stall air after foaling
Procedure: as §3, with “This sample size of mares was selected on the basis of power calculations using the following assumptions: (a) significance level of P=0.05; (b) statistical power of 90%; (c) a mean of 1×10^4 colony forming units (cfu) per gram of feces among control mares; (d) a mean of 1×10^3 cfu per gram of feces among principal mares; and (e) standard deviations of 1×10^4 and 1×10^3 for the control and principal groups, respectively. The values for fecal concentrations were made on the basis of prior experiences of a collaborator.” left out
As part of a non-limiting example of an embodiment of the invention, the following method was employed to determine the effect of oral GAN on the airborne concentration of virulent R. equi in foaling stalls shortly after birth. […] The number of total and virulent R. equi counted on each plate represented the airborne concentrations (cfu/1,000 liters of air). […]

[7] = Safety / adverse effects of gallium nitrate in horses; format: in vivo
Procedure: as §2

R. equi [8] = conditions: cited from earlier work
R. equi [9] = conditions: reported; cited from earlier work
[10] = pregnant mice, cited from earlier work
[11] = 300 to 1500 mg/kg intraperitoneally; cited from earlier work

SMILES: Cc1occc(=O)c1[O-].Cc1occc(=O)c1[O-].Cc1occc(=O)c1[O-].[Ga+3] [Gallium maltolate]
- gallium serum concentration [1]: increased
- cumulative incidence of R equi pneumonia, control versus treated groups (R equi): no significant differences

SMILES: O=[N+]([O-])[O-].O=[N+]([O-])[O-].O=[N+]([O-])[O-].[Ga+3] [gallium nitrate]
- whole blood concentrations following gallium nitrate administration (FIG. 1) ([2]; 9.2 mg/kg daily for 6 days, two horses): increased
- increase in blood concentration over time ([2]; horses): 250%
- blood concentration of gallium, starting value ([2]; horses, value the concentration increased from): 0.0000231 µmol/g
- blood concentration of gallium, after feeding ([2]; horses, value the concentration increased to): 0.0009004 µmol/g
- time of peak gallium in whole blood and serum ([2]; single dose 9.2 mg/kg, 1% gallium nitrate, nasogastric tube): around 24 hours
- time by which absorption of gallium was demonstrated ([2]; single dose 9.2 mg/kg, 1% gallium nitrate, nasogastric tube, whole blood and serum): ≤ 6 h
- fecal concentration of gallium, treated versus control mares (FIG. 3) [3]: significant increase
- concentration of R. equi in the feces of the mares (virulent R. equi [4]; oral gallium nitrate daily): reduction
- concentrations of virulent R. equi in feces, treatment group compared to control (virulent R. equi [4]; time 3, week after foaling, P<0.05): significantly lower
- concentrations of virulent R. equi in feces, time 3 versus time 1 in treatment group (virulent R. equi [4]; week after foaling versus day 320 of gestation, P<0.05): significantly (P<0.05) lower
- highest level of virulent R. equi in feces in any treated mare (virulent R. equi [5]): 17,500 CFU/g
- level of virulent R. equi in feces in most treated mares (virulent R. equi [5]): ≤ 1,600 CFU/g
- level of virulent R. equi in feces in several treated mares (virulent R. equi [5]): almost undetectable levels
- treated mares with positive airborne samples (R. equi [6]): 2 of 10
- adverse effects in dosed horses ([7]; 9.2 mg/kg single dose or daily for 6 days): None of the horses showed any adverse effects
- adverse effects in pregnant mares ([7]; from conception through foaling): no demonstrable adverse effects
- adverse event claims in field use ([7]; used in over 10,000 horses): not been a single claim of any adverse event
- concentration that killed R. equi in culture (R. equi [8]; previous in vitro data): over 0.050 micromoles/ml
- effect on growth of R. equi grown in media (R. equi [8]; reported): significant inhibition in growth and to even kill R. equi
- R. equi growth in experimentally infected mice (R. equi [9]): decrease R. equi growth
- adverse effects in the fetus ([10]; 50 mg/kg and below): no adverse effects
- fetal malformations ([10]; 100 mg/kg): cleft palate and renal hypoplasia were increased
- effect on regeneration of bone and cartilage [11]: dose dependent effect

— patent US20140193521A1, “Drug Delivery Systems and Method of Reducing Foal Infection by Treating Mares with Gallium Salts” (priority 2011, published 2014)
